# Measurements: US20140023713A1, “CLATHRATE COMPLEX OF CYCLODEXTRIN OR ARABINOGALACTAN WITH 9-PHENYL-SYM-OCTA-HYDROSELENOXANTENE” (priority 2011, published 2014)
# Entries after “also recorded” stand apart in the source; their conditions may differ. Read-outs that look alike come from different tables or passages of the source.
# Experiments:
# hematopoietic stem cells = experiment: cloning method of hematopoietic stem cells in the spleens of irradiated mice (spleen colony formation by donor bone marrow cells, radioprotection); format: in vivo
# Protocol: The study of radioprotective and cytoprotective properties of compound 1 and the complex compound 2 (ratio 1:3) by cloning method of hematopoietic stem cells in the spleens of irradiated mice.
# 1) Formation of spleen colonies by bone marrow cells of mice that received Compound 2 multiple times prior to irradiation at a dose of 1.5 Gy. Unlike compound 1, the complex form of compound 2 is water-soluble.
# Compound 2 was administered orally to mice-donors of bone marrow at doses of 5 mg/kg and 2 mg/kg in 0.2 ml physiological solution for 5 days. […] Control mice received 0.2 ml of physiological solution for 5 days. 7 days after the last injection, mice were irradiated (1.5 Gy at installation “Luch-1”). 15 minutes later the animals were sacrificed, a bone marrow cell suspension was prepared and injected to lethally irradiated recipient mice for determination of the colony-forming ability.
# 2) Formation of spleen colonies by bone marrow cells of mice that received Compound 1, suspended in a starch gel, multiple times prior to irradiation at a dose of 1.5 Gy.
# In the second series of experiments using the same experimental scheme and similar doses, the Compound 1 suspension was prepared in 2% starch gel. 90 female mice (CBA×C57B1/6) F1 were used in this study: 18 donors and 72 recipients.
# CFU-C-8 = format: in vivo, mice
# Protocol: A study on cytoprotective effect of the compound 1 was conducted.
Compound,"Quantity of colonies on 105 cells of bone marrow M ± m (hematopoietic stem cells; Compound 1 2 mg/kg + Starch gel 2%, no irradiation, 2 mg/kg)","Quantity of colonies on 105 cells of bone marrow M ± m (hematopoietic stem cells; Compound 1 2 mg/kg + Starch gel 2%, no irradiation, listed as compound 1, 2 mg/kg)","Quantity of colonies on 105 cells of bone marrow M ± m (hematopoietic stem cells; Compound 1 2 mg/kg + Starch gel 2%, then 1.5 Gy irradiation)","Quantity of colonies on 105 cells of bone marrow M ± m (hematopoietic stem cells; Compound 1 5 mg/kg + Starch gel 2%, no irradiation, 5 mg/kg)","Quantity of colonies on 105 cells of bone marrow M ± m (hematopoietic stem cells; Compound 1 5 mg/kg + Starch gel 2%, no irradiation, listed as compound 1, 5 mg/kg)","Quantity of colonies on 105 cells of bone marrow M ± m (hematopoietic stem cells; Compound 1 5 mg/kg + Starch gel 2%, then 1.5 Gy irradiation)","adaptive response of hematopoietic stem cells to irradiation / radioprotective effect (in words) (hematopoietic stem cells; treatment for 5 days prior to irradiation 1.5 Gy, both doses (5 and 2 mg/kg))",CFU-C-8 Quantity on 10^5 bone marrow cells of donors (CFU-C-8; Compound 1 5 mg/kg 7 days prior to single Cisplatin 5 mg/kg),"CFU-C-8 Quantity on 10^5 bone marrow cells of donors (CFU-C-8; Compound 1 5 mg/kg, no Cisplatin)",adaptive response of CFU-S-8 to cisplatin (in words) (CFU-C-8; administered 7 days prior to a single injection of cisplatin),"CFU-C-8 Quantity on 10^5 bone marrow cells of donors (CFU-C-8; mouse, in vivo)"
"c1ccc(C2C3=C(CCCC3)[Se]C3=C2CCCC3)cc1 [Compound 1, 9-phenyl-sym-octahydroselenoxanthene]",24 ± 1.3,statistically significant increase in the number of colonies,9.1 ± 0.3,28.7 ± 1.1,statistically significant increase in the number of colonies,9.5 ± 0.8,absent; also recorded: does not provide the radioprotective effect,9.6 ± 0.3,12.6 ± 0.6,distinct adaptive response,–
"N.N.[Cl][Pt][Cl] [Cisplatin, reference compound]",–,–,–,–,–,–,–,–,–,–,6.4 ± 0.6
